Measured values taken from patent US5221664A, “Composition and treatment with biologically active peptides and toxic cations” (Magainin Pharmaaceuticals Inc., priority 1991, dated 1993).
“And” between values parts separate entries of the source, which are not always exact repeats. Equal values may be shown once. Read-outs that look alike come from different tables or passages of the source. Ends that are not written are not given here.

Assays:
[1] = system: P. aeruginosa strain 27853
Protocol: Approximately 1-5×10^5 colony forming units (CFUs) of P. aeruginosa strain 27853, dispersed in 100 μl of Trypticase soy broth (TSB), were added to each test well. […] B13-33 peptide is of the following structure:
The following peptide combinations were tested for Minimal Inhibitory Concentration (MIC) of the B13-33 peptide:
The following combinations were tested for the MIC of silver nitrate:
Approximately 1-5×10^5 CFUs of P. aeruginosa strain 27853 dispersed in 100 μl of TSB were added to each test well. […]

[2] = system: clinical isolate of a methicillin resistant S. aureus (MSRA); format: cell-based; conditions: agent alone
Protocol: Approximately 1-5×10^5 CFUs of a clinical isolate of a methicillin resistant S. aureus (MSRA), dispersed in 100 μl of TSB were added to each test well. […] The MIC of each peptide alone, and of silver nitrate alone was determined. The MIC of each peptide when 5 μg/ml and/or 10 μg/ml of silver nitrate was added was determined as well.

[3] = system: P. aeruginosa strain 107 which was gentamicin resistant; assay: Minimum Inhibitory Concentration (MIC) in TSB, test wells; format: cell-based; conditions: for MIC: agent alone, gentamicin resistant P. aeruginosa strain 107; for MIC of the peptide: P. aeruginosa strain 107
Protocol: Approximately 1-5×10^5 CFUs of P. aeruginosa strain 107 which was gentamicin resistant, dispersed in 100 μl of TSB were added to each test well. […] The following combinations of Magainin II, with or without silver nitrate, were tested for Minimum Inhibitory Concentration (MIC) of Magainin II: […]

[4] = agent alone, P. aeruginosa strain 27853
[5] = plus 3 μg/ml silver nitrate, P. aeruginosa strain 27853

Compound: O=[N+]([O-])[O-].[Ag+] [Silver nitrate, silver nitrate, reference compound]
- MIC [1, 4]: 4 to 8 µg/mL and 8 µg/mL
- MIC ([1]; agent alone, P. aeruginosa strain 27853, listed as silver nitrate): 2 to 8 µg/mL
- MIC of silver nitrate ([1]; plus 1.6 μg/ml B13-33 peptide, P. aeruginosa strain 27853): 2 to 8 µg/mL
- MIC of silver nitrate ([1]; plus 5 μg/ml B13-33 peptide, P. aeruginosa strain 27853): < 0.25 µg/mL
- MIC of silver nitrate ([1]; plus 5 μg/ml B13-33 peptide, P. aeruginosa strain 27853, listed as silver nitrate): less than 0.25 μg/ml
- MIC [2]: 16 µg/mL
- MIC [3]: 8 µg/mL

Compound: GIGKFLHSAKKFGKAFVGEIMNS-NH2 [Magainin II]
- MIC of the peptide ([1]; plus 1 μg/ml silver nitrate, P. aeruginosa strain 27853): 32 µg/mL
- MIC of the peptide ([1]; plus 2 μg/ml silver nitrate, P. aeruginosa strain 27853): 16 µg/mL
- MIC of the peptide [1, 5]: 8 µg/mL
- MIC of the peptide ([1]; plus 4 μg/ml silver nitrate, P. aeruginosa strain 27853): < 0.03 µg/mL
- MIC [3]: 256 µg/mL
- MIC of the peptide ([3]; plus 1 μg/ml silver nitrate): 32 µg/mL
- MIC of the peptide ([3]; plus 2 μg/ml silver nitrate): 16 µg/mL
- MIC of the peptide ([3]; plus 3 μg/ml silver nitrate): 16 µg/mL
- MIC of the peptide ([3]; plus 4 μg/ml silver nitrate): 4 µg/mL
- MIC of the peptide ([3]; plus 5 μg/ml silver nitrate): < 0.03 µg/mL

Compound: GIGKFLKKAKKFGKAFVKIMKK [B13-33 peptide]
- MIC ([1]; strain 27853): 4 to 16 µg/mL

Compound: KWKLFKKIEKVGQRVRDAVISAGPAVATVAQATALAK [Cecropin A-D]
- MIC [1, 4]: 16 µg/mL
- MIC of the peptide [1, 5]: < 0.25 µg/mL
